Measurements as given in patent publication US20060231107A1, “Antibody-targeted photodynamic therapy” (priority 2003, published 2006).

Legend:
[1] = test system: VEGF-expressing, murine endothelial cells (MS-1 VEGF, ATCC); test: Photodynamic cell viability by trypan blue exclusion; format: cell-based; details: for cell viability (trypan blue exclusion) compared with Dulbecco's PBS controls: laser-exposed (647 nm, 56.5 J/cm), verteporfin 40 μg/ml, P<0.0001
Method: FIG. 3 is a graph showing the mean percent cell viability by trypan blue exclusion over eight experimental runs in 24-well culture plates for VEGF-expressing endothelial cells in Dulbecco's phosphate buffered saline (“DPBS”), cells incubated with verteporfin ([sequence]) at 40 μg/ml (“Verteporfin”), and cells incubated with verteporfin ([sequence]) conjugated to anti-VEGF antibody (“Conjugate”). Error bars indicate 1 standard deviation from the mean. The cells received either no laser treatment or were exposed to krypton-ion CW laser (647 nm) at a total light dosage of 56.5 J/cm for either 1 hour (left) or 24 hours (right).
Experiments were conducted in a line of cultured, VEGF-expressing, murine erdothelial cells (MS-1 VEGF, ATCC). Cells were grown in 24-well culture plates under standard cell culture conditions in Dulbecco's minimal essential medium (DMEM) with 10% fetal calf serum. Cells were incubated for one hour with either phosphate buffered saline solution alone, verteporfin at 40 μg/ml, or verteporfin-anti-VEGF antibody conjugate (FIG. 2A). All cells were washed twice with phosphate buffered saline following incubation to remove unbound photosensitizer. The photosensitizer was excited by exposing selected wells to the krypton-ion CW laser (647 nm) at a total light dosage of 56.5 J/cm, which is the recommended ophthalmic light dosage (FIG. 2A). For each treatment condition, there were laser-exposed and non-exposed groups. Following laser exposure, cells were incubated for either 1 or 24 hours, and cell viability was assessed using trypan blue exclusion.

[2] = test system: MS-1 vascular endothelial cells; test: Binding kinetics: fluorescence intensity of labeled MS-1 cells in confocal micrographs; format: cell-based, murine; details: within the first 10 minutes of labeling (FIG. 7)
Method: FIG. 7 is a graph of fluorescence intensity of conjugate-labeled and VISUDYNE-labeled MS-1 vascular endothelial cells as a function of incubation time. The fluorescence intensity of confocal micrographs was determined with the “histogram” analysis tool of the ImagePro image processing software program (Media Cybernetics; Silver Springs, Md.). Intensity is expressed as the accumulated pixel counts in the image.
In order to provide a more quantitative comparison of the binding kinetics of the conjugate and the native VISUDYNE, the fluorescence intensity of the MS-1 cells labeled for varying durations was measured in a series of confocal micrographs using the “histogram” tool of ImagePro image processing program (Media Cybernetics; Silver Springs, Md.). […] Accordingly, if the laser activation were to be applied within 10 minutes of application of the conjugate, essentially maximum photodynamic effect would be realized. Targets not expressing the VEGF factor would not be as strongly labeled. This improved selectivity of the conjugate for VEGF-expressing targets is a distinct advantage over the native VISUDYNE.

With verteporfin the “cell viability (trypan blue exclusion) compared with Dulbecco's PBS controls” value ([1]; 1 hour after laser) was “large losses of viability”, the “cell viability (trypan blue exclusion) compared with Dulbecco's PBS controls” value ([1]; 24 hours after laser) was “large losses of viability” and the “cell viability without laser exposure” value ([1]; no laser, possible toxicity or low-level activation by ambient light) was “reduced viability”. For the same substance, the “binding to the target cells (fluorescence intensity)” value [2] was “approximately 50 % of maximum binding”.
